{
  "source": "PubChem BioAssay (NCI)",
  "assay_in_all_cases": "NCI anticancer screen, dose series, 48 h",
  "key": {"SF-539 CNS": {"test_system": "SF-539 CNS"}, "SNB-75 CNS": {"test_system": "SNB-75 CNS"}, "OVCAR-8 ovarian": {"test_system": "OVCAR-8 ovarian"}, "UACC-257 melanoma": {"test_system": "UACC-257 melanoma"}, "OVCAR-5 ovarian": {"test_system": "OVCAR-5 ovarian"}, "SK-MEL-2 melanoma": {"test_system": "SK-MEL-2 melanoma"}, "SN12C renal": {"test_system": "SN12C renal"}, "SR leukemia": {"test_system": "SR leukemia"}, "PC-3 prostate": {"test_system": "PC-3 prostate"}, "NCI-H226 lung": {"test_system": "NCI-H226 lung"}, "BT-549 breast": {"test_system": "BT-549 breast"}, "HOP-92 NSCLC": {"test_system": "HOP-92 NSCLC"}, "M14 melanoma": {"test_system": "M14 melanoma"}, "SW-620 colon": {"test_system": "SW-620 colon"}, "K-562 leukemia": {"test_system": "K-562 leukemia"}, "NCI/ADR-RES ovarian": {"test_system": "NCI/ADR-RES ovarian"}, "NCI-H460 lung": {"test_system": "NCI-H460 lung"}, "SNB-19 CNS": {"test_system": "SNB-19 CNS"}, "HOP-62 NSCLC": {"test_system": "HOP-62 NSCLC"}, "HCT-15 colon": {"test_system": "HCT-15 colon"}, "OVCAR-3 ovarian": {"test_system": "OVCAR-3 ovarian"}, "SK-MEL-28 melanoma": {"test_system": "SK-MEL-28 melanoma"}, "HT29 colon": {"test_system": "HT29 colon"}, "ACHN renal": {"test_system": "ACHN renal"}, "U251 CNS": {"test_system": "U251 CNS"}, "COLO 205 colon": {"test_system": "COLO 205 colon"}, "A498 renal": {"test_system": "A498 renal"}, "OVCAR-4 ovarian": {"test_system": "OVCAR-4 ovarian"}, "T-47D breast": {"test_system": "T-47D breast"}, "CAKI-1 renal": {"test_system": "CAKI-1 renal"}},
  "note": "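A five-concentration, 48-hour dose response in 96-well plates underlies each endpoint, interpolated linearly between surrounding concentrations. At the GI50, growth is halved. At the TGI there is no net growth.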",
  "data": [
    {"smiles": "Cc1c2cnccc2c(C)c2c1c1cc(CO)ccc1n2C", "values": [
      {"measurement": "TGI", "setting": "SF-539 CNS", "result": 1540, "unit": "nM"},
      {"measurement": "GI50", "setting": "SNB-75 CNS", "result": 434, "unit": "nM"},
      {"measurement": "TGI", "setting": "SNB-75 CNS", "result": 1700, "unit": "nM"},
      {"measurement": "GI50", "setting": "OVCAR-8 ovarian", "result": 178, "unit": "nM"},
      {"measurement": "TGI", "setting": "OVCAR-8 ovarian", "result": 2450, "unit": "nM"},
      {"measurement": "GI50", "setting": "UACC-257 melanoma", "result": 292, "unit": "nM"},
      {"measurement": "TGI", "setting": "UACC-257 melanoma", "result": 1680, "unit": "nM"},
      {"measurement": "GI50", "setting": "OVCAR-5 ovarian", "result": 244, "unit": "nM"},
      {"measurement": "TGI", "setting": "OVCAR-5 ovarian", "result": 1180, "unit": "nM"},
      {"measurement": "GI50", "setting": "SK-MEL-2 melanoma", "result": 455, "unit": "nM"},
      {"measurement": "TGI", "setting": "SK-MEL-2 melanoma", "result": 2010, "unit": "nM"},
      {"measurement": "GI50", "setting": "SN12C renal", "result": 187, "unit": "nM"},
      {"measurement": "TGI", "setting": "SN12C renal", "result": 1650, "unit": "nM"},
      {"measurement": "GI50", "setting": "SR leukemia", "result": 75.2, "unit": "nM"},
      {"measurement": "GI50", "setting": "PC-3 prostate", "result": 367, "unit": "nM"},
      {"measurement": "TGI", "setting": "PC-3 prostate", "result": 2140, "unit": "nM"},
      {"measurement": "GI50", "setting": "NCI-H226 lung", "result": 109, "unit": "nM"},
      {"measurement": "TGI", "setting": "NCI-H226 lung", "result": 570, "unit": "nM"},
      {"measurement": "GI50", "setting": "BT-549 breast", "result": 927, "unit": "nM"},
      {"measurement": "TGI", "setting": "BT-549 breast", "result": 2280, "unit": "nM"},
      {"measurement": "GI50", "setting": "HOP-92 NSCLC", "result": 382, "unit": "nM"},
      {"measurement": "TGI", "setting": "HOP-92 NSCLC", "result": 2630, "unit": "nM"},
      {"measurement": "GI50", "setting": "M14 melanoma", "result": 298, "unit": "nM"},
      {"measurement": "TGI", "setting": "M14 melanoma", "result": 1220, "unit": "nM"},
      {"measurement": "GI50", "setting": "SW-620 colon", "result": 116, "unit": "nM"},
      {"measurement": "TGI", "setting": "SW-620 colon", "result": 1390, "unit": "nM"},
      {"measurement": "GI50", "setting": "K-562 leukemia", "result": 264, "unit": "nM"},
      {"measurement": "TGI", "setting": "K-562 leukemia", "result": 1680, "unit": "nM"},
      {"measurement": "GI50", "setting": "NCI/ADR-RES ovarian", "result": 187, "unit": "nM"},
      {"measurement": "TGI", "setting": "NCI/ADR-RES ovarian", "result": 1930, "unit": "nM"},
      {"measurement": "GI50", "setting": "NCI-H460 lung", "result": 149, "unit": "nM"},
      {"measurement": "TGI", "setting": "NCI-H460 lung", "result": 571, "unit": "nM"},
      {"measurement": "GI50", "setting": "SNB-19 CNS", "result": 299, "unit": "nM"},
      {"measurement": "TGI", "setting": "SNB-19 CNS", "result": 2370, "unit": "nM"},
      {"measurement": "GI50", "setting": "HOP-62 NSCLC", "result": 211, "unit": "nM"},
      {"measurement": "TGI", "setting": "HOP-62 NSCLC", "result": 2330, "unit": "nM"},
      {"measurement": "GI50", "setting": "HCT-15 colon", "result": 217, "unit": "nM"},
      {"measurement": "TGI", "setting": "HCT-15 colon", "result": 1310, "unit": "nM"},
      {"measurement": "GI50", "setting": "OVCAR-3 ovarian", "result": 295, "unit": "nM"},
      {"measurement": "TGI", "setting": "OVCAR-3 ovarian", "result": 1420, "unit": "nM"},
      {"measurement": "GI50", "setting": "SK-MEL-28 melanoma", "result": 384, "unit": "nM"},
      {"measurement": "TGI", "setting": "SK-MEL-28 melanoma", "result": 1560, "unit": "nM"},
      {"measurement": "GI50", "setting": "HT29 colon", "result": 257, "unit": "nM"},
      {"measurement": "TGI", "setting": "HT29 colon", "result": 2730, "unit": "nM"},
      {"measurement": "GI50", "setting": "ACHN renal", "result": 66.5, "unit": "nM"},
      {"measurement": "TGI", "setting": "ACHN renal", "result": 1160, "unit": "nM"},
      {"measurement": "GI50", "setting": "U251 CNS", "result": 298, "unit": "nM"},
      {"measurement": "TGI", "setting": "U251 CNS", "result": 1630, "unit": "nM"},
      {"measurement": "GI50", "setting": "COLO 205 colon", "result": 258, "unit": "nM"},
      {"measurement": "TGI", "setting": "COLO 205 colon", "result": 1260, "unit": "nM"},
      {"measurement": "GI50", "setting": "A498 renal", "result": 30.5, "unit": "nM"},
      {"measurement": "TGI", "setting": "A498 renal", "result": 169, "unit": "nM"},
      {"measurement": "GI50", "setting": "OVCAR-4 ovarian", "result": 299, "unit": "nM"},
      {"measurement": "TGI", "setting": "OVCAR-4 ovarian", "result": 1200, "unit": "nM"},
      {"measurement": "GI50", "setting": "T-47D breast", "result": 275, "unit": "nM"},
      {"measurement": "TGI", "setting": "T-47D breast", "result": 3140, "unit": "nM"},
      {"measurement": "GI50", "setting": "CAKI-1 renal", "result": 163, "unit": "nM"},
      {"measurement": "TGI", "setting": "CAKI-1 renal", "result": 1080, "unit": "nM"}
    ]}
  ]
}
